Columns and labels:
EstA = molecular target: T1, EstA (Clostridium botulinum, UniProt A5I055)
T1 construct: gene lipA

aAbPPO4 = molecular target: T2, aAbPPO4 (Agaricus bisporus, UniProt C7FF05); experiment: activity on dopamine after pre-incubation and ultrafiltration, […] nm; assay type: biochemical
T2 construct: gene PPO4; N-terminal GST tag cleaved off with HRV 3C; expressed in E. coli BL21(DE3)
T2 sequence (C7FF05 1-379): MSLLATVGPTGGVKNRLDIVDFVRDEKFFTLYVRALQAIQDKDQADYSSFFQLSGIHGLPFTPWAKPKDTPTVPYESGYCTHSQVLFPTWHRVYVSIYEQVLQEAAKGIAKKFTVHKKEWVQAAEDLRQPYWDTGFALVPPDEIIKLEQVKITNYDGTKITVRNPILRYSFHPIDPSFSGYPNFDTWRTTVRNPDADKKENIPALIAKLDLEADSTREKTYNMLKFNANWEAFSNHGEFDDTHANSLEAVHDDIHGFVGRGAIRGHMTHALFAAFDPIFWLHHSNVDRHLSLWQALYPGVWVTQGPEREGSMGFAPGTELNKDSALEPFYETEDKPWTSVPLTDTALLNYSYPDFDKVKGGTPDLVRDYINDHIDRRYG

T1 sequence (A5I055 1-480): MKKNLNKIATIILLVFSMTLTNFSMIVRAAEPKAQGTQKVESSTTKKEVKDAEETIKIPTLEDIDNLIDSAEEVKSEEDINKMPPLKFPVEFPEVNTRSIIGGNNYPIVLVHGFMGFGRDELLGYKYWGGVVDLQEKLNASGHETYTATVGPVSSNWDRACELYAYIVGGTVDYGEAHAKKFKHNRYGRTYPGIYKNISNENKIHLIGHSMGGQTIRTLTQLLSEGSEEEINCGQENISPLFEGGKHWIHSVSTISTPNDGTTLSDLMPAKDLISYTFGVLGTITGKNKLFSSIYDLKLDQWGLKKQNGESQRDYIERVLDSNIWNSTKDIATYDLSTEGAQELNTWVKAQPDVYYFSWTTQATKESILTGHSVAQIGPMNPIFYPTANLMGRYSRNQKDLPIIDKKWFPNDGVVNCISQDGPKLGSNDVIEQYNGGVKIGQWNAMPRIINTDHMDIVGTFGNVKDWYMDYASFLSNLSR

Row | Compound | photometric, 4-nitrophenol release at 405 nm (EstA) | activity on dopamine after pre-incubation and ultrafiltration, 475 nm (aAbPPO4)
1 | CCCC(=O)Oc1ccc([N+](=O)[O-])cc1 [para-nitrophenyl butyrate] | on the model substrate para-nitrophenyl butyrate (pNPB) compared to the uncleaved enzyme | 
2 | O=S(O)O [sodium bisulphite] |  | the loss of PPO activity of aAbPPO4 was verified by an activity assay with dopamine

— article PMC9814219 (Communications Chemistry, 2020)
